Measured values: patent US20230346961A1, “GLP-1 AND GIP RECEPTOR CO-AGONISTS” (Novo Nordisk A/S, priority 2020, published 2023)
pEC50: −log10 of the molar value. Starred links: 1 amine or outer side, 2 acyl side, 3 side chain; linkers in the order of their positions; H or OH if unused. Non-standard residues stand in square brackets, D forms with d. Residues, ends and D or L forms follow the SMILES beside them. Groups on a side chain read outwards from the residue. *: point of attachment. C20 diacid = O=C(O)CCCCCCCCCCCCCCCCCCC(=O)*; C18 diacid = O=C(O)CCCCCCCCCCCCCCCCC(=O)*; γGlu = O=C(O)[C@H](CCC(=O)[*:2])N[*:1]; εLys = N[C@@H](CCCCN[*:1])C(=O)[*:2]; Trx = NC[C@H]1CC[C@H](C(=O)O)CC1; AEEA = NCCOCCOCC(=O)O; Aib = CC(C)(N)C(=O)O

Key:
human GLP-1 receptor = human GLP-1 receptor (Homo sapiens, UniProt P43220); test: cell-based; details: hGLP-1R
Experimental: The in vitro functional potency is the measure of target receptor activation in a whole cell assay.
In vitro functional potency was determined by measuring the response of the target receptor in a reporter gene assay in individual cell lines. […] When the respective receptor is activated, it results in the production of cAMP, which in turn results in expression of the luciferase protein. When assay incubation is completed, luciferase substrate (luciferin) is added resulting in the enzymatic conversion of luciferin to oxyluciferin and producing bioluminescence. The luminescence is measured as the readout for the assay.
The cells lines used in these assays were BHK cells with BHKTS13 as a parent cell line. The cell lines were derived from a clone containing the CRE luciferase element and were established by further transfection with the respective receptor to obtain the relevant cell line.
The cells were cultured at 37° C. with 5% CO2 in Cell Culture Medium. They were aliquoted and stored in liquid nitrogen. The cells were kept in continuous culture and were seeded out the day before each assay.
GLP-1R and GcgR Cell Culture Medium consisted of DMEM medium with 10% FBS, 500 μg/mL G418, and 300 μg/mL hygromycin. GIPR Cell Culture Medium consisted of DMEM medium with 10% FBS, 400 μg/mL G418, and 300 μg/mL hygromycin. Assay Buffer consisted of DMEM w/o phenol red, 10 mM Hepes, 1×Glutamax, 1% ovalbumin, and 0.1% Pluronic F-68 with the addition of HSA at twice the final assay concentration.
• 1) Cells were plated at 5000 cells/well and incubated overnight in the assay plate. • 2) Cells were washed once in DPBS. • 3) Stocks of the test compounds and reference compounds in concentrations ranging from 100-300 μM were diluted 1:150 in Assay Buffer. Compounds were then diluted 1:10 in column 1 of a 96 deep well dilution plate and then carried across the row creating a 3.5 fold, 12 point dilution curve. • 4) Assay Buffer (50 μl aliquot) with or without HSA was added to each well in the assay plate. • 5) A 50 μl aliquot of compound or blank was transferred from the dilution plate to the assay plate containing the Assay Buffer with or without HSA. • 6) The assay plate was incubated for 3 h in a 5% CO2 incubator at 37° C. 7) The cells were washed once with DPBS. • 8) A 100 μl aliquot of DPBS was added to each well of the assay plate. • 9) A 100 μl aliquot of steadylite plus reagent (light sensitive) was added to each well of the assay plate. • 10) Each assay plate was covered with aluminum foil to protect it from light and shaken at 250 RPM for 30 min at room temperature. • 11) Each assay plate was read in a microtiter plate reader.
The data from the microtiter plate reader was first regressed in an Excel in order to calculate the x-axis, log scale concentrations based on the individual test compound's stock concentration and the dilutions of the assay. […] The software performs a non-linear regression (log(agonist) vs response). A minimum of two replicates was measured for each sample. The reported values are averages of the replicates.

mouse GIP receptor = target: T1, mouse GIP receptor (Mus musculus, UniProt Q0P543); test: cell-based
T1 sequence (Q0P543 19-460): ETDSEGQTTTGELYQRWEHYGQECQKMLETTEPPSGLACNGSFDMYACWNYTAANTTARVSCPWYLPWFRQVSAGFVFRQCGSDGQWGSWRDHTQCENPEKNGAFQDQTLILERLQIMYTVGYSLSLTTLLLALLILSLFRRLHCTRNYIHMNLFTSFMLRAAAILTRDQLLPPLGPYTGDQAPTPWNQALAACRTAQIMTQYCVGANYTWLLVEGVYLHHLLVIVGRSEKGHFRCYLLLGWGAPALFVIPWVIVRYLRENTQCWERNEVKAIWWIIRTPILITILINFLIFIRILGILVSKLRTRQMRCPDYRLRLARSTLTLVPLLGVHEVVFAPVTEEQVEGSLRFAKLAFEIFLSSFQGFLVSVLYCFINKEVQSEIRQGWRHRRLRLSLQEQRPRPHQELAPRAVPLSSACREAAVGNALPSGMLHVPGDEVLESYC

mouse GLP-1 receptor = target: T2, mouse GLP-1 receptor (Mus musculus, UniProt O35659)
T2 sequence (O35659 22-463): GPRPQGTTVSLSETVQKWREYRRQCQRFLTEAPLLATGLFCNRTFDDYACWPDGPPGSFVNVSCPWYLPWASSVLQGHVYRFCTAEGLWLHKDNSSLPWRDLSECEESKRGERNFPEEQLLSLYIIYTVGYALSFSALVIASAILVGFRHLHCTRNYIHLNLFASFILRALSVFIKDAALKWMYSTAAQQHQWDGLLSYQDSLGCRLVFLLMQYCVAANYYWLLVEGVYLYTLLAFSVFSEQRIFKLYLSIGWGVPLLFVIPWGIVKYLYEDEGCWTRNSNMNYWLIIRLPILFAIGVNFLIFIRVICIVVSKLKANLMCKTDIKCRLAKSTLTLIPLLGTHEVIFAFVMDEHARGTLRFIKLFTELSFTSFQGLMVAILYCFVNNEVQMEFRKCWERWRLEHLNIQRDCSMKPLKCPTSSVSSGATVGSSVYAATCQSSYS

Chain of human GLP-1 receptor (P43220 24-463): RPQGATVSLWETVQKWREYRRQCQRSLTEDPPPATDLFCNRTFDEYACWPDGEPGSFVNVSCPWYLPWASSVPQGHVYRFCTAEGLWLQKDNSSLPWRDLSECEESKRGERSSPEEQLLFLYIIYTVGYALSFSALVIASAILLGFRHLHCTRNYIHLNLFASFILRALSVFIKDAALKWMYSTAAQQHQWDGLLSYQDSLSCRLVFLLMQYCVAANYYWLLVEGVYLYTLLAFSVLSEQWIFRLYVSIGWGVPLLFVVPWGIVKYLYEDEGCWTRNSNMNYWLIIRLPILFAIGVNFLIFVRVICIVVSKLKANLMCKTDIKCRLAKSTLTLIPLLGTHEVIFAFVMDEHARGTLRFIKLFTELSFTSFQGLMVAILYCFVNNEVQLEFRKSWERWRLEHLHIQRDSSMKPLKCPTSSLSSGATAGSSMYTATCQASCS

CC[C@H](C)[C@H](NC(=O)[C@H](CO)NC(=O)[C@H](Cc1ccc(O)cc1)NC(=O)[C@H](CC(=O)O)NC(=O)[C@H](CO)NC(=O)[C@@H](NC(=O)[C@H](Cc1ccccc1)NC(=O)[C@@H](NC(=O)CNC(=O)[C@H](CCC(=O)O)NC(=O)C(C)(C)NC(=O)[C@@H](N)Cc1ccc(O)cc1)[C@@H](C)O)[C@@H](C)O)C(=O)N[C@@H](Cc1ccc(O)cc1)C(=O)N[C@@H](CC(C)C)C(=O)N[C@@H](CC(=O)O)C(=O)N[C@@H](CCCCN)C(=O)N[C@@H](CCC(N)=O)C(=O)N[C@@H](C)C(=O)N[C@@H](C)C(=O)NC(C)(C)C(=O)N[C@@H](CCCCNC(=O)COCCOCCNC(=O)COCCOCCNC(=O)CC[C@H](NC(=O)CCCCCCCCCCCCCCCCC(=O)O)C(=O)O)C(=O)N[C@@H](Cc1ccccc1)C(=O)N[C@H](C(=O)N[C@@H](CC(N)=O)C(=O)N[C@@H](Cc1c[nH]c2ccccc12)C(=O)N[C@@H](CC(C)C)C(=O)N[C@@H](CC(C)C)C(=O)N[C@@H](C)C(=O)NCC(=O)NCC(=O)N1CCC[C@H]1C(=O)N[C@@H](CO)C(=O)N[C@@H](CO)C(=O)NCC(=O)N[C@@H](C)C(=O)N1CCC[C@H]1C(=O)N1CCC[C@H]1C(=O)N1CCC[C@H]1C(=O)N[C@@H](CO)C(N)=O)C(C)C [Compound 5] (H-Y[Aib]EGTFTSDYSIYLDKQAA[Aib]K([AEEA-AEEA-γGlu-C18 diacid])FVNWLLAGGPSSGAPPPS-NH2; N-terminus assumed)
pEC50 (human GLP-1 receptor; CRE Luc 0% HSA EC50, 0% HSA): 11.04
pEC50 (human GLP-1 receptor; CRE Luc 1% HSA EC50, 1% HSA): 9.79
pEC50 (mouse GIP receptor): 9.28
pEC50 (mouse GLP-1 receptor): 11.60

CC[C@H](C)[C@H](NC(=O)[C@H](CO)NC(=O)[C@H](Cc1ccc(O)cc1)NC(=O)[C@H](CC(=O)O)NC(=O)[C@H](CO)NC(=O)[C@@H](NC(=O)[C@H](Cc1ccccc1)NC(=O)[C@@H](NC(=O)CNC(=O)[C@H](CCC(=O)O)NC(=O)C(C)(C)NC(=O)[C@@H](N)Cc1ccc(O)cc1)[C@@H](C)O)[C@@H](C)O)C(=O)N[C@@H](Cc1ccc(O)cc1)C(=O)N[C@@H](CC(C)C)C(=O)N[C@@H](CCC(=O)O)C(=O)N[C@@H](CCCCNC(=O)[C@@H](N)CCCCNC(=O)[C@@H](N)CCCCNC(=O)CC[C@H](NC(=O)[C@H]1CC[C@H](CNC(=O)CCCCCCCCCCCCCCCCCCC(=O)O)CC1)C(=O)O)C(=O)N[C@@H](CCC(N)=O)C(=O)N[C@@H](C)C(=O)N[C@@H](C)C(=O)NC(C)(C)C(=O)N[C@@H](CCC(=O)O)C(=O)N[C@@H](Cc1ccccc1)C(=O)N[C@H](C(=O)N[C@@H](CCC(N)=O)C(=O)N[C@@H](Cc1c[nH]c2ccccc12)C(=O)N[C@@H](CC(C)C)C(=O)N[C@@H](CC(C)C)C(=O)N[C@@H](CCC(=O)O)C(=O)NCC(=O)NCC(=O)N1CCC[C@H]1C(=O)N[C@@H](CO)C(=O)N[C@@H](CO)C(=O)NCC(=O)N[C@@H](C)C(N)=O)C(C)C [Compound 33] (H-Y[Aib]EGTFTSDYSIYLEK([εLys-εLys-γGlu-Trx-C20 diacid])QAA[Aib]EFVQWLLEGGPSSGA-NH2; N-terminus assumed)
pEC50 (human GLP-1 receptor; CRE Luc 0% HSA EC50, 0% HSA): 11.23
pEC50 (human GLP-1 receptor; CRE Luc 1% HSA EC50, 1% HSA): 9.13
pEC50 (mouse GIP receptor): 10.51
pEC50 (mouse GLP-1 receptor): 11.40

CC[C@H](C)[C@H](NC(=O)[C@H](CO)NC(=O)[C@H](Cc1ccc(O)cc1)NC(=O)[C@H](CC(=O)O)NC(=O)[C@H](CO)NC(=O)[C@@H](NC(=O)[C@H](Cc1ccccc1)NC(=O)[C@@H](NC(=O)CNC(=O)[C@H](CCC(=O)O)NC(=O)C(C)(C)NC(=O)[C@@H](N)Cc1ccc(O)cc1)[C@@H](C)O)[C@@H](C)O)C(=O)N[C@@H](Cc1ccc(O)cc1)C(=O)N[C@@H](CC(C)C)C(=O)N[C@@H](CC(=O)O)C(=O)N[C@@H](CCCCN)C(=O)N[C@@H](CCC(N)=O)C(=O)N[C@@H](C)C(=O)N[C@@H](C)C(=O)NC(C)(C)C(=O)N[C@@H](CCC(=O)O)C(=O)N[C@@H](Cc1ccccc1)C(=O)N[C@H](C(=O)N[C@@H](CC(N)=O)C(=O)N[C@@H](Cc1c[nH]c2ccccc12)C(=O)N[C@@H](CC(C)C)C(=O)N[C@@H](CC(C)C)C(=O)N[C@@H](C)C(=O)NCC(=O)NCC(=O)N1CCC[C@H]1C(=O)N[C@@H](CO)C(=O)N[C@@H](CO)C(=O)NCC(=O)N[C@@H](C)C(=O)N1CCC[C@H]1C(=O)N1CCC[C@H]1C(=O)N1CCC[C@H]1C(=O)N[C@@H](CO)C(=O)N[C@@H](CCCCNC(=O)[C@@H](N)CCCCNC(=O)[C@@H](N)CCCCNC(=O)CC[C@H](NC(=O)CCCCCCCCCCCCCCCCC(=O)O)C(=O)O)C(N)=O)C(C)C [Compound 10]
pEC50 (human GLP-1 receptor; CRE Luc 0% HSA EC50, 0% HSA): 10.74
pEC50 (human GLP-1 receptor; CRE Luc 1% HSA EC50, 1% HSA): 9.53
pEC50 (mouse GIP receptor): 9.59
pEC50 (mouse GLP-1 receptor): 11.68

CC[C@H](C)[C@H](NC(=O)[C@H](CO)NC(=O)[C@H](Cc1ccc(O)cc1)NC(=O)[C@H](CC(=O)O)NC(=O)[C@H](CO)NC(=O)[C@@H](NC(=O)[C@H](Cc1ccccc1)NC(=O)[C@@H](NC(=O)CNC(=O)[C@H](CCC(=O)O)NC(=O)C(C)(C)NC(=O)[C@@H](N)Cc1ccc(O)cc1)[C@@H](C)O)[C@@H](C)O)C(=O)N[C@@H](Cc1ccc(O)cc1)C(=O)N[C@@H](CC(C)C)C(=O)N[C@@H](CCC(=O)O)C(=O)N[C@@H](CCCCN)C(=O)N[C@@H](CCC(N)=O)C(=O)N[C@@H](C)C(=O)N[C@@H](C)C(=O)NC(C)(C)C(=O)N[C@@H](CCCCNC(=O)COCCOCCNC(=O)COCCOCCNC(=O)CC[C@H](NC(=O)[C@H]1CC[C@H](CNC(=O)CCCCCCCCCCCCCCCCCCC(=O)O)CC1)C(=O)O)C(=O)N[C@@H](Cc1ccccc1)C(=O)N[C@H](C(=O)N[C@@H](CC(N)=O)C(=O)N[C@@H](Cc1c[nH]c2ccccc12)C(=O)N[C@@H](CC(C)C)C(=O)N[C@@H](CC(C)C)C(=O)N[C@@H](C)C(=O)NCC(=O)NCC(=O)N1CCC[C@H]1C(=O)N[C@@H](CO)C(=O)N[C@@H](CO)C(=O)NCC(=O)N[C@@H](C)C(N)=O)C(C)C [Compound 32] (H-Y[Aib]EGTFTSDYSIYLEKQAA[Aib]K([AEEA-AEEA-γGlu-Trx-C20 diacid])FVNWLLAGGPSSGA-NH2; N-terminus assumed)
pEC50 (human GLP-1 receptor; CRE Luc 0% HSA EC50, 0% HSA): 10.93
pEC50 (human GLP-1 receptor; CRE Luc 1% HSA EC50, 1% HSA): 9.66
pEC50 (mouse GIP receptor): 10.10
pEC50 (mouse GLP-1 receptor): 11.60

CC[C@H](C)[C@H](NC(=O)[C@H](CO)NC(=O)[C@H](Cc1ccc(O)cc1)NC(=O)[C@H](CC(=O)O)NC(=O)[C@H](CO)NC(=O)[C@@H](NC(=O)[C@H](Cc1ccccc1)NC(=O)[C@@H](NC(=O)CNC(=O)[C@H](CCC(=O)O)NC(=O)C(C)(C)NC(=O)[C@@H](N)Cc1ccc(O)cc1)[C@@H](C)O)[C@@H](C)CC)C(=O)N[C@@H](Cc1ccc(O)cc1)C(=O)N[C@@H](CC(C)C)C(=O)N[C@@H](CC(=O)O)C(=O)N[C@@H](CCCCN)C(=O)N[C@@H](CCC(N)=O)C(=O)N[C@@H](C)C(=O)N[C@@H](C)C(=O)NC(C)(C)C(=O)N[C@@H](CCCCNC(=O)[C@@H](N)CCCCNC(=O)[C@@H](N)CCCCNC(=O)CC[C@H](NC(=O)CCCCCCCCCCCCCCCCC(=O)O)C(=O)O)C(=O)N[C@@H](Cc1ccccc1)C(=O)N[C@H](C(=O)N[C@@H](CC(N)=O)C(=O)N[C@@H](Cc1c[nH]c2ccccc12)C(=O)N[C@@H](CC(C)C)C(=O)N[C@@H](CC(C)C)C(=O)N[C@@H](C)C(=O)NCC(=O)NCC(=O)N1CCC[C@H]1C(=O)N[C@@H](CO)C(=O)N[C@@H](CO)C(=O)NCC(=O)N[C@@H](C)C(=O)N1CCC[C@H]1C(=O)N1CCC[C@H]1C(=O)N1CCC[C@H]1C(=O)N[C@@H](CO)C(N)=O)C(C)C [Compound 11] (H-Y[Aib]EGTFISDYSIYLDKQAA[Aib]K([εLys-εLys-γGlu-C18 diacid])FVNWLLAGGPSSGAPPPS-NH2; N-terminus assumed)
pEC50 (human GLP-1 receptor; CRE Luc 0% HSA EC50, 0% HSA): 9.40
pEC50 (mouse GIP receptor): 10.86
pEC50 (mouse GLP-1 receptor): 9.55

CC[C@H](C)[C@H](NC(=O)[C@H](CO)NC(=O)[C@H](Cc1ccc(O)cc1)NC(=O)[C@H](CC(=O)O)NC(=O)[C@H](CO)NC(=O)[C@@H](NC(=O)[C@H](Cc1ccccc1)NC(=O)[C@@H](NC(=O)CNC(=O)[C@H](CCC(=O)O)NC(=O)C(C)(C)NC(=O)[C@@H](N)Cc1ccc(O)cc1)[C@@H](C)O)[C@@H](C)O)C(=O)N[C@@H](Cc1ccc(O)cc1)C(=O)N[C@@H](CC(C)C)C(=O)N[C@@H](CCC(=O)O)C(=O)N[C@@H](CCCCN)C(=O)N[C@@H](CCC(N)=O)C(=O)N[C@@H](C)C(=O)N[C@@H](C)C(=O)NC(C)(C)C(=O)N[C@@H](CCCCNC(=O)[C@@H](N)CCCCNC(=O)[C@@H](N)CCCCNC(=O)CC[C@H](NC(=O)CCCCCCCCCCCCCCCCC(=O)O)C(=O)O)C(=O)N[C@@H](Cc1ccccc1)C(=O)N[C@H](C(=O)N[C@@H](CC(N)=O)C(=O)N[C@@H](Cc1c[nH]c2ccccc12)C(=O)N[C@@H](CC(C)C)C(=O)N[C@@H](CC(C)C)C(=O)N[C@@H](C)C(=O)NCC(=O)NCC(=O)N1CCC[C@H]1C(=O)N[C@@H](CO)C(=O)N[C@@H](CO)C(=O)NCC(=O)N[C@@H](C)C(N)=O)C(C)C [Compound 18] (H-Y[Aib]EGTFTSDYSIYLEKQAA[Aib]K([εLys-εLys-γGlu-C18 diacid])FVNWLLAGGPSSGA-NH2; N-terminus assumed)
pEC50 (human GLP-1 receptor; CRE Luc 0% HSA EC50, 0% HSA): 11.48
pEC50 (human GLP-1 receptor; CRE Luc 1% HSA EC50, 1% HSA): 10.05
pEC50 (mouse GIP receptor): 10.61
pEC50 (mouse GLP-1 receptor): 11.70
